From article PMC9511493, “2-(Fluoromethoxy)-4′-(S-methanesulfonimidoyl)-1,1′-biphenyl (UCM-1306), an Orally Bioavailable Positive Allosteric Modulator of the Human Dopamine D1 Receptor for Parkinson’s Disease” (Journal of Medicinal Chemistry, 2022)

Tested on: reserpinized C57BL/6 mice
Test: locomotor activity in reserpinized mice
Type: in vivo, mouse
Conditions: reserpine 2.5 mg/kg sc; 26 30 mg/kg po; L-DOPA 100 or 400 mg/kg ip
Protocol: The study was carried out in male C57BL/6 wild-type (22–25 g) mice that were acclimatized for 5 days. Animals were randomized based on body weight into six groups (G1 to G6), ten animals per group (n = 10), being group G1 the naïve control group. Animals were fed with standard diet ad libitum. Animals were dosed with subcutaneous administration of reserpine (2.5 mg/kg in DMSO/saline) and after 20 h they were treated with a vehicle (10 mL/kg, po), compound 26 (30 mg/kg, po), L-DOPA (100 or 400 mg/kg, ip) + carbidopa (100 mg/kg, ip) and/or their combination, as indicated in Figure 7. The vehicle employed for compound 26 administration was 5% NMP + 5% solutol HS-15 + 90% normal saline. L-DOPA and carbidopa were administered 30 min prior to start of locomotor activity recording. Compound 26 was administered and 15 min later, mice were placed in the locomotor activity cage to measure the locomotor activity for 60 min (total distance travelled) using ALL Maze version 0.5 automated software enabled with video tracking system. After the activity sessions, raw data were reduced using ALL Maze 5.0 software and Microsoft Excel. Statistical analysis was done with GraphPad Prism-5 using one way ANOVA followed by Dunnett’s test/Tukey’s post hoc test and/or two-way ANOVA followed by Bonferroni post hoc test. Data were considered statistically significant, if P value was less than 0.05.
With N[C@@H](Cc1ccc(O)c(O)c1)C(=O)O [L-DOPA, reference compound] the “recovery of decreased locomotor activity, substance alone” value was “small recovery of decreased locomotor activity”.

Biological target: T1, human D1R (Homo sapiens, UniProt P21728)
T1 construct: endogenously expressed human D1R in the SK-N-MC cell line (ATCC); host or cells: SK-N-MC human neuroblastoma cells
T1 sequence (P21728 whole entry): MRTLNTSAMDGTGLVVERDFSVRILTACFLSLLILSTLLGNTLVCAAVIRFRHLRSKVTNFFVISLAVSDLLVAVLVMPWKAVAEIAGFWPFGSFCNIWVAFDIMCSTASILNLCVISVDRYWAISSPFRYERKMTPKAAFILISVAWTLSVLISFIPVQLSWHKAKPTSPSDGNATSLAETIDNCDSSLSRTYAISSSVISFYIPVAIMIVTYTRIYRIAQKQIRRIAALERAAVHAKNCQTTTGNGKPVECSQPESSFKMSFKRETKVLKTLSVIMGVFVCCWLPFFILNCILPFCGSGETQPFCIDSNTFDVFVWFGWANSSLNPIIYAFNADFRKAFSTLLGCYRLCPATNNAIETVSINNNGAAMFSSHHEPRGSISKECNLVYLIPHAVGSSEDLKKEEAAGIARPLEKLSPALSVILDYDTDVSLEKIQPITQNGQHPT
Test: potentiator-mode cAMP assay (HTRF) in SK-N-MC neuroblastoma cells endogenously expressing human D1R
Type: cell-based
Conditions: SK-N-MC; concentration–response curve of the compound over DA EC70; read-out: % maximum increase (efficacy over DA EC70)
Protocol: An in-house chemical library of 250 compounds was screened using an in vitro assay measuring accumulation of cAMP in a human neuroblastoma SK-N-MC cell line stably expressing physiological levels of the D1R but not the D5R.[41] To assess allosteric modulation of the D1R, cells were treated with a fixed concentration of the test compounds (10 μM) for 15 min and then co-incubated with increasing concentrations of the endogenous agonist DA. The cAMP concentration was quantified by homogeneous time-resolved fluorescence energy transfer (HTRF) and the effect of each compound on the DA concentration–response curve was measured.
The PAM efficacy was measured as the percentage of increase over DA EC70 and the potency as the EC50 observed in the concentration–response curve.
Functional studies at human D1 and D2 receptors were carried out in endogenously expressed human D1R in the SK-N-MC cell line (ATCC), and recombinant human D2R stably transfected in an in-house CHO cell line. Cells were thawed and seeded into a black 96-well plate (1 × 10^4 cells/well for SK-N-MC cell line, 5 × 10^3 cells/well for CHO cell line) in Opti-MEM containing 500 μM IBMX (3-isobutyl-1-methylxanthine).
O=Cc1ccc(-c2ccc(OC(F)F)cc2)cc1 [Compound 5] gave an Emax of 37 ± 5%. In the case of O=Cc1ccc(-c2cccc(OC(F)F)c2)cc1 [Compound 6], the Emax is reported as 35 ± 7%. O=Cc1ccc(-c2ccccc2OC(F)F)cc1 [Compound 7] showed an Emax of 62%. O=Cc1ccc(-c2ccccc2SC(F)F)cc1 [Compound 10, 2′-[(Difluoromethyl)sulfanyl][1,1′-biphenyl]-4-carbaldehyde] gave an Emax of 101 ± 10%. Work on NS(=O)(=O)c1ccc(-c2ccccc2OCF)cc1 [Compound 18] yielded an Emax of 42 ± 7%. CNS(=O)(=O)c1ccc(-c2ccccc2OCF)cc1 [Compound 19] showed an Emax of 28 ± 8%. Compound CS(=O)(=O)c1ccc(-c2ccccc2OCF)cc1 [Compound 20] has an Emax of 30 ± 8%. For C[S+]([O-])c1ccc(-c2ccccc2OCF)cc1 (stereo not shown) [Compound 23], the Emax was 73 ± 6%. CCS(=N)(=O)c1ccc(-c2ccccc2OCF)cc1 (stereo not shown) [Compound 25] gave an Emax of 50 ± 7%. CN=S(C)(=O)c1ccc(-c2ccccc2OCF)cc1 (stereo not shown) [Compound 27] gave an Emax of 33 ± 3%.

Same assay, conditions: concentration–response curve of the compound over DA EC70
In the case of O=Cc1ccc(-c2ccccc2OC(F)F)cc1 [Compound 7], the “% maximum increase (efficacy over DA EC70)” value is reported as 62 ± 10%.

Same assay, conditions: potency of the compound at the DA EC70 concentration
With O=Cc1ccc(-c2ccc(OC(F)F)cc2)cc1 [Compound 5] the EC50 was 2.3 ± 0.4 µM. With O=Cc1ccc(-c2cccc(OC(F)F)c2)cc1 [Compound 6] the EC50 was 10.8 ± 1.6 µM. In the case of O=Cc1ccc(-c2ccccc2OC(F)F)cc1 [Compound 7], the EC50 is reported as 18.5 ± 2.7 µM. Compound O=Cc1ccc(-c2ccccc2SC(F)F)cc1 [Compound 10, 2′-[(Difluoromethyl)sulfanyl][1,1′-biphenyl]-4-carbaldehyde] has an EC50 of 21.8 ± 3.6 µM. Work on NS(=O)(=O)c1ccc(-c2ccccc2OCF)cc1 [Compound 18] yielded an EC50 of 4.93 ± 1.2 µM. In the case of CNS(=O)(=O)c1ccc(-c2ccccc2OCF)cc1 [Compound 19], the EC50 is reported as 1.26 ± 0.7 µM. In the case of CS(=O)(=O)c1ccc(-c2ccccc2OCF)cc1 [Compound 20], the EC50 is reported as 13.1 ± 2.8 µM. Work on C[S+]([O-])c1ccc(-c2ccccc2OCF)cc1 (stereo not shown) [Compound 23] yielded an EC50 of 21.7 ± 5.8 µM. CCS(=N)(=O)c1ccc(-c2ccccc2OCF)cc1 (stereo not shown) [Compound 25] showed an EC50 of 30.2 ± 2.4 µM. Compound CN=S(C)(=O)c1ccc(-c2ccccc2OCF)cc1 (stereo not shown) [Compound 27] has an EC50 of 15.9 ± 2.7 µM.

Tested on: not given
Test: not given
Conditions: not given
Compound O=Cc1ccc(-c2ccccc2SC(F)F)cc1 [Compound 10, 2′-[(Difluoromethyl)sulfanyl][1,1′-biphenyl]-4-carbaldehyde] has a melting point of 46 to 47 °C.

Biological target: T1, human D1R
Test: potentiator-mode cAMP assay (HTRF) in SK-N-MC neuroblastoma cells endogenously expressing human D1R
Type: cell-based
Conditions: no DA
For C[S@](=N)(=O)c1ccc(-c2ccccc2OCF)cc1 [(S)-26, (S)-2-(Fluoromethoxy)-4′-(S-methanesulfonimidoyl)-1,1′-biphenyl], the “cAMP response in the absence of DA (agonist activity)” value was “no agonist activity”. With C[S@@](=N)(=O)c1ccc(-c2ccccc2OCF)cc1 [Compound (R)-26, (R)-2-(Fluoromethoxy)-4′-(S-methanesulfonimidoyl)-1,1′-biphenyl] the “cAMP response in the absence of DA (agonist activity)” value was “no agonist activity”.
